According to article PMC4897634, “Design of an α-helical antimicrobial peptide with improved cell-selective and potent anti-biofilm activity” (Scientific Reports, 2016):
Where no end group is shown, it is not given here.

Tests used:
Gram-negative bacteria = type: cell-based, E. coli, P. aeruginosa, K. pneumoniae; details: ratio of MHC to GM, Gram-negative bacteria
Procedure: (§1) The antimicrobial activities of the peptides, indicated by the minimum inhibitory concentrations (MIC), were determined against a range of Gram-negative (Table 3) and Gram-positive bacterial strains (Table 4). The geometric mean of MIC values (GM) from the three strains was calculated to provide an overall evaluation of antimicrobial activity.
(§2) The therapeutic index (TI) is defined as the ratio of the minimum haemolytic concentration (MHC) of peptides to the GM of peptides, and this value was used to evaluate cell selectivity of peptides towards the negatively charged region of bacterial cell membranes over the zwitterionic mammalian cell membranes.
(§3) The antibacterial activities of the peptides against three Gram-negative bacteria and three Gram-positive bacteria strains were measured using a modified version of the Clinical Laboratory and Standards Institute (CLSI) broth microdilution method as described previously. Three Gram-negative bacteria, Escherichia coli (1.8732), Pseudomonas aeruginosa (1.2421), and Klebsiella pneumonia (1.1736), and three Gram-positive bacteria, Staphylococcus aureus (1.8721), Staphylococcus epidermidis (1.4260), and Bacillus subtilis (1.3376), were purchased from the China General Microbiological Culture Collection Centre (CGMCC). Briefly, bacteria were grown in liquid LB medium (tryptone, 10 g/L, yeast extract, 5 g/L and NaCl, 10 g/L) at 37 °C to mid-log phase, and the bacteria were diluted to 1 × 10^6 colony-forming units (CFU)/ml. The peptides were serially diluted with phosphate-buffered saline (PBS), and 50 μl diluted peptides were added to 50 μl of the bacterial suspension in 96-well plate (Corning Inc., Lowell, MA, USA). After incubation at 37 °C for 18 to 20 hours, the absorbance of each well was recorded using a multi-well microplate reader (SpectraMax M5; Molecular Devices, Sunnyvale, CA, USA) at 600 nm. The lowest concentration at which the peptide inhibited complete growth of the bacteria was taken as the minimal inhibitory concentration (MIC).

[1] = test system: L929 mouse fibroblast cells; assay: Cytotoxicity, MTT assay; type: cell-based; details: 1 hour
Procedure: The toxicity of the peptides against L929 mouse fibroblast cells was assessed by a standard MTT assay. L929 mouse fibroblast cells from ATCC (Manassas, VA, USA) were maintained in our laboratory. L929 cells were cultured in RPMI 1640 supplemented with 10% (v/v) FBS, 2 mM L-glutamine, 100 U/ml penicillin and […] streptomycin and maintained in a humidified incubator with 5% CO2 at 37 °C. L929 cells (5 × 10^3cells/well) were seeded in 96-well plates (Corning Inc., Lowell, MA, USA) and incubated overnight. Diluted peptides were added to L929 cells and incubated for 1 hour. Then, 20 μl of MTT (5 mg/ml) solution was added and incubated for 4 hours. The medium was removed, and 150 μl of DMSO was added to each well to dissolve the formazan crystals. The absorbance was measured at 490 nm on a microplate reader (SpectraMax M5; Molecular Devices, Sunnyvale, CA, USA). Cell viabilities were calculated by using the equation (3): […]

[2] = test system: Bacillus subtilis (1.3376); assay: Antimicrobial activity, broth microdilution MIC; type: cell-based; details: modified CLSI broth microdilution, LB medium, 1 × 10^6 CFU/ml, 37 °C, 18 to 20 hours, absorbance 600 nm
Procedure: as §3

[3] = test system: Escherichia coli (1.8732); assay: Antimicrobial activity, broth microdilution MIC; type: cell-based; details: modified CLSI broth microdilution, LB medium, 1 × 10^6 CFU/ml, 37 °C, 18 to 20 hours, absorbance 600 nm
Procedure: as §3

[4] = test system: Staphylococcus epidermidis (1.4260); assay: Antimicrobial activity, broth microdilution MIC; type: cell-based; details: modified CLSI broth microdilution, LB medium, 1 × 10^6 CFU/ml, 37 °C, 18 to 20 hours, absorbance 600 nm
Procedure: as §3

[5] = test system: Staphylococcus aureus (1.8721); assay: Antimicrobial activity, broth microdilution MIC; type: cell-based; details: modified CLSI broth microdilution, LB medium, 1 × 10^6 CFU/ml, 37 °C, 18 to 20 hours, absorbance 600 nm
Procedure: as §3

[6] = test system: Pseudomonas aeruginosa (1.2421); assay: Antimicrobial activity, broth microdilution MIC; type: cell-based; details: modified CLSI broth microdilution, LB medium, 1 × 10^6 CFU/ml, 37 °C, 18 to 20 hours, absorbance 600 nm
Procedure: as §3

[7] = test system: Klebsiella pneumonia (1.1736); assay: Antimicrobial activity, broth microdilution MIC; type: cell-based; details: modified CLSI broth microdilution, LB medium, 1 × 10^6 CFU/ml, 37 °C, 18 to 20 hours, absorbance 600 nm
Procedure: as §3

human erythrocytes = assay: Haemolytic activity; type: cell-based; details: 37 °C, 30 min; for MHC, minimum haemolytic concentration: concentration causing 10% haemolysis of hRBC, 200 μM used when no haemolysis detectable at 100 μM
Procedure: Haemolytic activity of the peptides was assayed by a standard procedure with slight modification. Fresh human erythrocytes were washed three times and resuspended at 1.25% haematocrit in PBS. Forty microlitres PBS-diluted peptide solution was added to a V-bottom 96-well plate (Corning Inc., Lowell, MA, USA), and 160 μl of erythrocytes was added. After incubation at 37 °C for 30 min, the samples were centrifuged, and the absorbance of the supernatant was measured at 450 nm using a multi-well microplate reader (SpectraMax M5; Molecular Devices, Sunnyvale, CA, USA) and compared with the 100% haemolysis caused by 0.1% Triton X-100. The percentage of haemolysis was calculated according to the equation (2): […]

Gram-positive bacteria = type: cell-based, S. aureus, S. epidermidis, B. subtilis; details: ratio of MHC to GM, Gram-positive bacteria
Procedure: as §1, §2, §3

Acinetobacter baumannii = assay: MIC against biofilm-producing clinical isolate; type: cell-based; details: biofilm-producing strain, broth microdilution as for the other strains
Procedure: The antibacterial activities of the peptides against three Gram-negative bacteria and three Gram-positive bacteria strains were measured using a modified version of the Clinical Laboratory and Standards Institute (CLSI) broth microdilution method as described previously. Three Gram-negative bacteria, Escherichia coli (1.8732), Pseudomonas aeruginosa (1.2421), and Klebsiella pneumonia (1.1736), and three Gram-positive bacteria, Staphylococcus aureus (1.8721), Staphylococcus epidermidis (1.4260), and Bacillus subtilis (1.3376), were purchased from the China General Microbiological Culture Collection Centre (CGMCC). […] After incubation at 37 °C for 18 to 20 hours, the absorbance of each well was recorded using a multi-well microplate reader (SpectraMax M5; Molecular Devices, Sunnyvale, CA, USA) at 600 nm. […]
Biofilm attachment assays against Acinetobacter baumannii were performed using a previously described method with some modifications. […] The MICs of AMPs against A. baumannii were evaluated as described above. […] The wells were allowed to dry, and the crystal violet-stained well was re-solubilized with 200 μl of 95% ethanol and shaken for 10 min followed by measurement of the absorbance at 595 nm on a microplate reader (SpectraMax M5; Molecular Devices, Sunnyvale, CA, USA). […]

[8] = 100 μM peptide, human erythrocytes, relative to 0.1% Triton X-100

Substance | TI, therapeutic index (Gram-negative bacteria) | viability of treated L929 cells ([1]; 50 μM peptide) | MIC B. subtilis [2] | MIC E. coli [3] | MIC S. epidermidis [4] | MIC S. aureus [5] | MIC P. aeruginosa [6] | MIC K. pneumoniae [7] | haemolytic activity (human erythrocytes; 25 μM peptide, human erythrocytes, relative to 0.1% Triton X-100) | haemolysis rate (human erythrocytes; [8]) | MHC, minimum haemolytic concentration (human erythrocytes) | TI, therapeutic index (Gram-positive bacteria) | MIC Acinetobacter baumannii (Acinetobacter baumannii) | viability of treated L929 cells ([1]; 6.25 μM peptide) | haemolysis rate (human erythrocytes; 3.13 μM peptide, human erythrocytes, relative to 0.1% Triton X-100)
AIGSILGALAKGLPTLKSWIKNR-NH2 [A(I17K)] | 1.59 | 7.9% | 6.25 µM | 25 µM | 12.5 µM | 50 µM | 25 µM | 50 µM | 6.4% | 33% | 50 µM | 3.17 |  |  | 
RIGSILGRLAKGLPTLKSWIKNR-NH2 [A(A1R, A8R, I17K)] | 16 | 31.4% | 12.5 µM | 12.5 µM | 6.25 µM | 100 µM | 12.5 µM | 12.5 µM |  | 4.4% |  | 10.08 | 12.5 µM |  | 
AIGSILGALAKGLPTLISWIKNR-NH2 [AR-23, reference compound] | 0.2 |  | 3.13 µM | 25 µM | 3.13 µM | 6.25 µM | 12.5 µM | 12.5 µM |  |  | 3.13 µM | 0.79 | 12.5 µM | approximately 10% | 37.9%
